According to patent publication US4692443A, “3-bicyclicpyridinium-methyl cephalosporins” (Eli Lilly and Company, priority 1984, dated 1987):
Converted amounts (≈) assume the structure as drawn. Where two headings read alike, the source gives them in different places.

Legend:
Staph. aureus X1.1 = assay: standard in vitro agar dilution assay (MIC); format: cell-based; conditions: Staphylococcus aureus
Staph. aureus V41 = assay: standard in vitro agar dilution assay (MIC); format: cell-based; conditions: Staphylococcus aureus
Staph. aureus X400 = assay: standard in vitro agar dilution assay (MIC); format: cell-based; conditions: Staphylococcus aureus; Staph. aureus strain X400
Staph. aureus S13E = assay: microbe, parasite or virus in culture; format: cell-based; conditions: Staphylococcus aureus, read-out: Agar Dilution MIC
Staph. epi EPI1 = assay: standard in vitro agar dilution assay (MIC); format: cell-based; conditions: Staph. epi strain EPI1
Staph. epi 222 = assay: standard in vitro agar dilution assay (MIC); format: cell-based; conditions: Staph. epi strain 222
Strep. A C203 = assay: standard in vitro agar dilution assay (MIC); format: cell-based; conditions: Strep. A strain C203
Strep. PN PARK = assay: standard in vitro agar dilution assay (MIC); format: cell-based; conditions: Strep. PN strain PARK
Strep. D X66 = assay: standard in vitro agar dilution assay (MIC); format: cell-based; conditions: Strep. D strain X66
Strep. D 9960 = assay: standard in vitro agar dilution assay (MIC); format: cell-based; conditions: Strep. D strain 9960
H. influ. C.L. = assay: standard in vitro agar dilution assay (MIC); format: cell-based; conditions: read-out: Agar Dilution MIC
Klebsiella X26 = assay: standard in vitro agar dilution assay (MIC); format: cell-based
Klebsiella KAE = assay: standard in vitro agar dilution assay (MIC); format: cell-based; conditions: Klebsiella strain KAE; read-out: Agar Dilution MIC
Enterobacter cloacae EB5 = assay: standard in vitro agar dilution assay (MIC); format: cell-based
Salmonella X514 = assay: standard in vitro agar dilution assay (MIC); format: cell-based; conditions: Salmonella strain X514; read-out: Agar Dilution MIC
Pseudomonas X528 = assay: standard in vitro agar dilution assay (MIC); format: cell-based; conditions: Pseudomonas strain X528
Source text: The antibacterial activity of several representative compounds of the invention has been evaluated in standard in vitro agar dilution assays. The following Table presents typical minimum inhibitory concentrations (MIC's) in μg /ml for exemplary compounds when evaluated against typical Gram + and Gram - microorganism.

Pseudomonas X239 = assay: standard in vitro agar dilution assay (MIC); format: cell-based; conditions: Pseudomonas strain X239
Serratia X99 = assay: standard in vitro agar dilution assay (MIC); format: cell-based
H. influ. 76 = assay: standard in vitro agar dilution assay (MIC); format: cell-based; conditions: read-out: Agar Dilution MIC
E. coli N10 = assay: standard in vitro agar dilution assay (MIC); format: cell-based; conditions: Escherichia coli
E. coli TEM = assay: standard in vitro agar dilution assay (MIC); format: cell-based; conditions: Escherichia coli, read-out: Agar Dilution MIC
[1] = system: Enterobacter aerogenes C32; assay: standard in vitro agar dilution assay (MIC); format: cell-based; conditions: Klebsiella aerogenes
Klebsiella X68 = assay: standard in vitro agar dilution assay (MIC); format: cell-based
Titration (pKa) = format: physicochemical; conditions: 66% dimethylformamide in water v/v
Source text: Titration (66% dimethylformamide in water v/v) pKa at 4.0, 7.4, 10.7.

E. coli EC14 = assay: standard in vitro agar dilution assay (MIC); format: cell-based; conditions: Escherichia coli, EC14, read-out: Agar Dilution MIC
[2] = Staph. aureus strain V41, read-out: Agar Dilution MIC
[3] = Klebsiella strain X26, read-out: Agar Dilution MIC
[4] = Enterobacter cloacae, EB5, read-out: Agar Dilution MIC
[5] = Serratia, X99, read-out: Agar Dilution MIC
[6] = Staph. aureus strain X1.1, read-out: Agar Dilution MIC
[7] = N10, read-out: Agar Dilution MIC
[8] = Enterobacter aerogenes strain C32, read-out: Agar Dilution MIC
[9] = Klebsiella, X68, read-out: Agar Dilution MIC
[10] = E. coli strain N10, read-out: Agar Dilution MIC
[11] = C32, read-out: Agar Dilution MIC
[12] = Serratia strain X99, read-out: Agar Dilution MIC

| SMILES | MIC (Staph. aureus V41; [2]) [µg/mL] | MIC (Staph. aureus X400) [µg/mL] | MIC (Staph. aureus S13E) [µg/mL] | MIC (Staph. epi EPI1) [µg/mL] | MIC (Staph. epi 222) [µg/mL] | MIC (Strep. A C203) [µg/mL] | MIC (Strep. PN PARK) [µg/mL] | MIC (Strep. D X66) [µg/mL] | MIC (Strep. D 9960) [µg/mL] | MIC (H. influ. C.L.) [µg/mL] | MIC (Klebsiella X26; [3]) [µg/mL] | MIC (Klebsiella KAE) [µg/mL] | MIC (Enterobacter cloacae EB5; [4]) [µg/mL] | MIC (Salmonella X514) [µg/mL] | MIC (Pseudomonas X528) [µg/mL] | MIC (Pseudomonas X239) [µg/mL] | MIC (Serratia X99; [5]) [µg/mL] | MIC (Staph. aureus X1.1; [6]) [µg/mL] | MIC (E. coli N10; [7]) [µg/mL] | MIC (Klebsiella X68; [9]) [µg/mL] | further results |
| --- | --- | --- | --- | --- | --- | --- | --- | --- | --- | --- | --- | --- | --- | --- | --- | --- | --- | --- | --- | --- | --- |
| CO/N=C(\C(=O)NC1C(=O)N2C(C(=O)[O-])=C(C[n+]3ccc4oc(C)nc4c3)CSC12)c1csc(N)n1 (stereo not drawn) [Example 11, syn-7-[2-(2-aminothiazol-4-yl)-2-methoxyiminoacetamido]-3-(2-methyloxazolo[4,5-c]pyridinium-5-ylmethyl)-3-cephem-4-carboxylate] | 8 (≈ 15.1 µM) | 32 (≈ 60.4 µM) | 8 (≈ 15.1 µM) | 4 (≈ 7.55 µM) | 1 (≈ 1.89 µM) | 0.015 (≈ 0.0283 µM) | 0.015 (≈ 0.0283 µM) | > 128 | 8 (≈ 15.1 µM) | 0.125 (≈ 0.236 µM) | 0.015 (≈ 0.0283 µM) | 4 (≈ 7.55 µM) | 0.125 (≈ 0.236 µM) | 0.03 (≈ 0.0567 µM) | 4 (≈ 7.55 µM) | 2 (≈ 3.78 µM) | 0.125 (≈ 0.236 µM) | – | – | – | MIC (Staph. aureus X1.1; X1.1, read-out: Agar Dilution MIC): 0.5 µg/mL (≈ 0.944 µM) |
| CO/N=C(\C(=O)NC1C(=O)N2C(C(=O)[O-])=C(C[n+]3ccc4nc(C)sc4c3)CSC12)c1csc(N)n1 (stereo not drawn) [Example 16, syn-7-[2-(2-aminothiazol-4-yl)-2-methoxyiminoacetamido]-3-(2-methylthiazolo[5,4-c]pyridinium-5-ylmethyl)-3-cephem-4-carboxylate] | 4 (≈ 7.33 µM) | 8 (≈ 14.7 µM) | 4 (≈ 7.33 µM) | 2 (≈ 3.67 µM) | 1 (≈ 1.83 µM) | 0.015 (≈ 0.0275 µM) | – | > 128 | 8 (≈ 14.7 µM) | – | – | 1 (≈ 1.83 µM) | 0.125 (≈ 0.229 µM) | 0.03 (≈ 0.055 µM) | 8 (≈ 14.7 µM) | 4 (≈ 7.33 µM) | 0.125 (≈ 0.229 µM) | 1 (≈ 1.83 µM) | – | – | MIC (H. influ. 76; H. influ. strain 76): 0.015 µg/mL (≈ 0.0275 µM) |
| CO/N=C(\C(=O)NC1C(=O)N2C(C(=O)[O-])=C(C[n+]3cccc4oc(N)nc43)CSC12)c1csc(N)n1 (stereo not drawn) [Example 10, syn-7-[2-(2-aminothiazol-4-yl)-2-methoxyiminoacetamido]-3-(2-aminooxazolo[4,5-b]pyridinium-4-ylmethyl)-3-cephem-4-carboxylate] | 4 (≈ 7.54 µM) | 32 (≈ 60.3 µM) | 4 (≈ 7.54 µM) | 2 (≈ 3.77 µM) | 1 (≈ 1.88 µM) | 0.015 (≈ 0.0283 µM) | 0.015 (≈ 0.0283 µM) | > 128 | 16 (≈ 30.2 µM) | – | 0.03 (≈ 0.0565 µM) | 4 (≈ 7.54 µM) | 0.25 (≈ 0.471 µM) | – | 4 (≈ 7.54 µM) | 2 (≈ 3.77 µM) | 0.125 (≈ 0.236 µM) | – | 0.125 (≈ 0.236 µM) | – | MIC (H. influ. 76): 0.125 µg/mL (≈ 0.236 µM); MIC (E. coli TEM; E. coli strain TEM): 0.03 µg/mL (≈ 0.0565 µM); MIC [1, 8]: 0.125 µg/mL (≈ 0.236 µM) |
| CO/N=C(\C(=O)N[C@@H]1C(=O)N2C(C(=O)[O-])=C(C[n+]3cccc4nc(N)sc43)CS[C@H]12)c1csc(N)n1 [Example 15, syn-7-[2-(2-aminothiazol-4-yl)-2-methoxyiminoacetamido]-3-(2-aminothiazolo[5,4-b]pyridinium-4-ylmethyl)-3-cephem-4-carboxylate] | 2 (≈ 3.66 µM) | – | 4 (≈ 7.32 µM) | 2 (≈ 3.66 µM) | 16 (≈ 29.3 µM) | 0.015 (≈ 0.0274 µM) | – | – | 8 (≈ 14.6 µM) | – | – | – | – | – | 1 (≈ 1.83 µM) | 2 (≈ 3.66 µM) | – | – | – | – | MIC (Klebsiella X68; Klebsiella strain X68, read-out: Agar Dilution MIC): 4 µg/mL (≈ 7.32 µM); pKa (second) (Titration (pKa)): 7.4; pKa (third) (Titration (pKa)): 10.7; pKa (Titration (pKa); read-out: pKa (first)): 4 |
| CC(C)(O/N=C(\C(=O)NC1C(=O)N2C(C(=O)[O-])=C(C[n+]3ccc4[nH]cnc4c3)CSC12)c1csc(N)n1)C(=O)O (stereo not drawn) [Example 1, syn-7-[2-(2-Aminothiazol-4-yl)-2-(2-carboxyprop-2-yl)oxyiminoacetamido]-3-(1H-imidazolo[4,5c]pyridinium-5-ylmethyl)-3-cephem-4-carboxylate] | – | 128 (≈ 218 µM) | 32 (≈ 54.6 µM) | 32 (≈ 54.6 µM) | 16 (≈ 27.3 µM) | – | – | > 128 | 16 (≈ 27.3 µM) | – | – | 1 (≈ 1.7 µM) | 0.25 (≈ 0.426 µM) | 0.5 (≈ 0.852 µM) | 8 (≈ 13.6 µM) | 2 (≈ 3.41 µM) | 0.5 (≈ 0.852 µM) | 8 (≈ 13.6 µM) | 0.5 (≈ 0.852 µM) | 0.125 (≈ 0.213 µM) | MIC (Staph. aureus V41; V41, read-out: Agar Dilution MIC): 32 µg/mL (≈ 54.6 µM); MIC (H. influ. C.L.; H. influ. strain C.L.): 0.03 µg/mL (≈ 0.0511 µM); MIC (E. coli EC14): 0.125 µg/mL (≈ 0.213 µM); MIC (E. coli TEM): 0.125 µg/mL (≈ 0.213 µM); MIC (Klebsiella X26; Klebsiella, X26, read-out: Agar Dilution MIC): 0.125 µg/mL (≈ 0.213 µM); MIC [1, 8]: 1 µg/mL (≈ 1.7 µM) |
| CO/N=C(\C(=O)NC1C(=O)N2C(C(=O)[O-])=C(C[n+]3ccc4[nH]c(-c5cccs5)nc4c3)CSC12)c1csc(N)n1 (stereo not drawn) [Example 8, syn-7-[2-(2-aminothiazol-4-yl)-2-methoxyiminoacetamido]-3-[2-(2-thienyl)-1H-imidazolo[4,5-c]pyridinium-5-ylmethyl)-3-cephem-4-carboxylate] | 8 (≈ 13.4 µM) | 32 (≈ 53.6 µM) | 8 (≈ 13.4 µM) | 4 (≈ 6.7 µM) | 2 (≈ 3.35 µM) | < 0.008 | < 0.008 | > 128 | 4 (≈ 6.7 µM) | 0.25 (≈ 0.419 µM) | 0.015 (≈ 0.0251 µM) | 4 (≈ 6.7 µM) | 0.5 (≈ 0.838 µM) | 0.5 (≈ 0.838 µM) | – | – | 0.5 (≈ 0.838 µM) | 2 (≈ 3.35 µM) | – | 0.5 (≈ 0.838 µM) | MIC (E. coli N10; [10]): 1 µg/mL (≈ 1.68 µM); MIC [1, 11]: 0.5 µg/mL (≈ 0.838 µM) |
| CO/N=C(\C(=O)NC1C(=O)N2C(C(=O)[O-])=C(C[n+]3ccc4nc(C(C)(C)C)sc4c3)CSC12)c1csc(N)n1 (stereo not drawn) [Example 17, syn-7-[2-(2-aminothiazol-4-yl)-2-methoxyiminoacetamido]-3-(2-tert.-butylthiazolo[5,4-c]pyridinium-5-ylmethyl)-3-cephem-4-carboxylate] | 4 (≈ 6.81 µM) | 32 (≈ 54.4 µM) | 8 (≈ 13.6 µM) | 4 (≈ 6.81 µM) | 1 (≈ 1.7 µM) | 0.015 (≈ 0.0255 µM) | 0.015 (≈ 0.0255 µM) | > 128 | 4 (≈ 6.81 µM) | 0.25 (≈ 0.425 µM) | – | 4 (≈ 6.81 µM) | – | 0.5 (≈ 0.851 µM) | – | – | – | 1 (≈ 1.7 µM) | 0.5 (≈ 0.851 µM) | 0.5 (≈ 0.851 µM) | MIC (H. influ. 76): 0.125 µg/mL (≈ 0.213 µM); MIC [1, 11]: 0.5 µg/mL (≈ 0.851 µM); MIC (Enterobacter cloacae EB5; Enterobacter cloacae strain EB5, read-out: Agar Dilution MIC): 1 µg/mL (≈ 1.7 µM); MIC (Serratia X99; [12]): 1 µg/mL (≈ 1.7 µM) |
| CO/N=C(\C(=O)NC1C(=O)N2C(C(=O)[O-])=C(C[n+]3ccc4[nH]c(-c5ccccc5)nc4c3)CSC12)c1csc(N)n1 (stereo not drawn) [Example 9, syn-7-[2-(2-aminothiazol-4-yl)-2-methoxyiminoacetamido]-3-(2-phenyl-1H-imidazolo[4,5-c]pyridinium-5-ylmethyl)-3-cephem-4-carboxylate] | 8 (≈ 13.5 µM) | 32 (≈ 54.2 µM) | 8 (≈ 13.5 µM) | 4 (≈ 6.77 µM) | 2 (≈ 3.39 µM) | < 0.008 | < 0.008 | > 128 | 4 (≈ 6.77 µM) | – | 0.015 (≈ 0.0254 µM) | 2 (≈ 3.39 µM) | 0.5 (≈ 0.847 µM) | 0.5 (≈ 0.847 µM) | – | – | – | 2 (≈ 3.39 µM) | – | 0.5 (≈ 0.847 µM) | MIC (H. influ. C.L.; H. influ. strain C.L.): 0.5 µg/mL (≈ 0.847 µM); MIC (E. coli N10; [10]): 1 µg/mL (≈ 1.69 µM); MIC (E. coli EC14): 0.125 µg/mL (≈ 0.212 µM); MIC [1, 11]: 0.5 µg/mL (≈ 0.847 µM); MIC (Serratia X99; [12]): 1 µg/mL (≈ 1.69 µM) |
